Experimental data from ChEMBL document CHEMBL1145232, “Synthesis of the naphthalene-derived inhibitors against Cdc25A dual-specificity protein phosphatase and their biological activity” (Bioorg Med Chem Lett, 2005).
In brackets after ≈: the same amount, converted by molar mass.

assay: In vitro inhibitory concentration against Cdc25A protein phosphatase

SMILES	IC50
COC1=CC(=O)c2c(cc(C/C=C/CO)c(C(O)c3ccccc3)c2OC)C1=O (stereo unspecified)	2.74 µg/mL (≈ 6.95 µM)
CCCCC(O)c1c(C/C=C/CO)cc2c(OC)c(OC)cc(OCc3ccccc3)c2c1OC (stereo unspecified)	> 10 µg/mL
CCC(O)c1c(C/C=C/CO)cc2c(c1OC)C(=O)C=C(OC)C2=O (stereo unspecified)	1.86 µg/mL (≈ 5.37 µM)
CCCCC(O)c1c(C/C=C/CO)cc2c(c1O)C(O)=C/C(=N\C)C2=O (stereo unspecified)	> 10 µg/mL
CCCCC(O)c1c(C/C=C/CO)cc2c(c1OC)C(=O)C=C(OC)C2=O (stereo unspecified)	1.77 µg/mL (≈ 4.73 µM)
CCCCC(O)c1c(C/C=C/CO)cc2c(c1O)C(=O)C=C(OC)C2=O (stereo unspecified)	1.51 µg/mL (≈ 4.19 µM)
CCCCCC(O)c1c(C/C=C/CO)cc2c(c1OC)C(=O)C=C(OC)C2=O (stereo unspecified)	1.6 µg/mL (≈ 4.12 µM)
COc1cc(OCc2ccccc2)c2c(OC)cc(C[C@@H]3CCOC(C)(C)O3)cc2c1OC	> 10 µg/mL
CCCC[C@H]1O[C@@H](CC(=O)O)Cc2cc3c(c(O)c21)C(=O)C=C(NC)C3=O (racemic)	>= 10 ug ml-1

The next lines start with the values.

IC50	SMILES
> 10 µg/mL	CCCCCC(O)c1c(C/C=C/CO)cc2c(c1OC)C(=O)C=C(NC)C2=O (stereo unspecified)
> 10 µg/mL	CNC1=CC(=O)c2c(OC)cc(C[C@@H]3CCOC(C)(C)O3)cc2C1=O
> 10 µg/mL	CCC(O)c1c(C/C=C/CO)cc2c(c1OC)C(=O)C=C(NC)C2=O (stereo unspecified)
> 10 µg/mL	CNC1=CC(=O)c2c(OC)cc(COC)cc2C1=O
0.4 µg/mL (≈ 1.15 µM)	COC1=CC(=O)c2c(OC)cc(C[C@@H]3CCOC(C)(C)O3)cc2C1=O
0.4 µg/mL (≈ 1.61 µM)	COC1=CC(=O)c2c(OC)cc(OC)cc2C1=O
> 10 µg/mL	CNC1=CC(=O)c2c(cc(C/C=C/CO)c(C(O)c3ccccc3)c2OC)C1=O (stereo unspecified)
